Test results from patent publication US10588317B2, “Isoxazoline-substituted benzamides and analogues as insecticides” (priority 2015, dated 2020).
Read-outs that look alike come from different tables or passages of the source.

Key:
Format in all cases: in vivo
Spodoptera littoralis = Spodoptera littoralis (Egyptian cotton leaf worm), sprayed cotton leaf discs; conditions: foliar, 72 h, read-out: control (mortality, anti-feeding effect, growth inhibition)
How it was run: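 Five first-instar larvae placed on dried cotton leaf discs (on agar) previously sprayed with aqueous dilutions of 10'000 ppm DMSO stocks. Scored at 3 days against untreated discs for mortality, feeding inhibition and growth inhibition; any category above untreated counts as control.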

Tetranychus urticae = Tetranychus urticae (two-spotted spider mite): feeding/contact activity; conditions: 192 h
Protocol: Bean leaf discs on agar in 24-well microtiter plates were sprayed with aqueous test solutions prepared from 10'000 ppm DMSO stock solutions. After drying the leaf discs were infested with a mite population of mixed ages. The samples were assessed for mortality on mixed population (mobile stages) 8 days after infestation.

Plutella xylostella = Plutella xylostella (diamond back moth), artificial diet; conditions: 120 h, read-out: effect in at least one of the two categories (mortality or growth inhibition); for percent effect (mortality or growth inhibition) at 200 ppm: application rate 200 ppm, L2 larvae, 5 days after infestation
How it was run: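 L2 larvae (10-15 per well) fed on compound-treated, dried artificial diet; test solutions diluted in water from 10'000 ppm DMSO stocks. Readout 5 days post-infestation as mortality or growth inhibition versus untreated diet, with at least 80% effect at 200 ppm as threshold.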

Thrips tabaci = Thrips tabaci (onion thrips): feeding/contact activity; conditions: 144 h
Protocol: Sunflower leaf discs were placed on agar in 24-well microtiter plates and sprayed with aqueous test solutions prepared from 10'000 ppm DMSO stock solutions. After drying the leaf discs were infested with a Thrips population of mixed ages. The samples were assessed for mortality 6 days after infestation.

Myzus persicae = Myzus persicae (green peach aphid): feeding/contact activity; conditions: 144 h
Protocol: Sunflower leaf discs were placed onto agar in a 24-well microtiter plate and sprayed with aqueous test solutions prepared from 10'000 ppm DMSO stock solutions. After drying, the leaf discs were infested with an aphid population of mixed ages. The samples were assessed for mortality 6 days after infestation.

Euschistus heros = Euschistus heros (neotropical brown stink bug), sprayed soybean leaves; conditions: 120 h, read-out: effect in at least one of the two categories (mortality or growth inhibition); for percent effect (mortality or growth inhibition) at 200 ppm: application rate 200 ppm, N2 nymphs, 5 days after infestation
How it was run: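 Scored 5 days post-infestation versus untreated controls, for both mortality and growth inhibition: N2 nymphs placed on agar-mounted soybean leaves previously sprayed at 200 ppm with aqueous test solutions from DMSO stocks and left to dry.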

Diabrotica balteata = Diabrotica balteata (corn root worm), sprayed maize sprouts; conditions: 96 h, read-out: effect in at least one of the two categories (mortality or growth inhibition); for percent effect (mortality or growth inhibition) at 200 ppm: application rate 200 ppm, L2 larvae, 4 days after infestation
How it was run: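 Read-out at 4 days post-infestation: mortality and growth inhibition relative to untreated samples. Test solutions (200 ppm, from DMSO stocks) were sprayed onto agar-held maize sprouts, which after drying received 6–10 L2 larvae per well.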

[1] = application rate 200 ppm, L1 larvae, 3 days after infestation
[2] = application rate 200 ppm, mixed population (mobile stages), 8 days after infestation, read-out: mortality
[3] = application rate 200 ppm, Thrips population of mixed ages, 6 days after infestation, read-out: mortality
[4] = application rate 200 ppm, aphid population of mixed ages, 6 days after infestation, read-out: mortality

Cc1cc(C2=NO[C@](c3cc(Cl)c(F)c(Cl)c3)(C(F)(F)F)C2)ccc1C(=O)N[C@H]1CON(S(=O)(=O)CC(F)(F)F)C1 [Compound A192, 4-[(5R)-5-(3,5-dichloro-4-fluorophenyl)-5-(trifluoromethyl)-4H-1,2-oxazol-3-yl]-2-methyl-N-[(4R)-2-(2,2,2-trifluoroethylsulfonyl)-1,2-oxazolidin-4-yl]benzamide]
≥ 80%: mortality at 200 ppm (Spodoptera littoralis; [1]) | mortality at 200 ppm (Tetranychus urticae; [2]) | percent effect (mortality or growth inhibition) at 200 ppm (Plutella xylostella) | mortality at 200 ppm (Thrips tabaci; [3]) | mortality at 200 ppm (Myzus persicae; [4]) | percent effect (mortality or growth inhibition) at 200 ppm (Euschistus heros) | percent effect (mortality or growth inhibition) at 200 ppm (Diabrotica balteata)

COCCS(=O)(=O)N1CC(NC(=O)c2ccc(C3=NO[C@@](c4cc(Cl)c(F)c(Cl)c4)(C(F)(F)F)C3)cc2C)CO1 (some centres unmarked) [Compound A18]
≥ 80%: mortality at 200 ppm (Spodoptera littoralis; [1]) | mortality at 200 ppm (Tetranychus urticae; [2]) | percent effect (mortality or growth inhibition) at 200 ppm (Plutella xylostella) | mortality at 200 ppm (Thrips tabaci; [3]) | mortality at 200 ppm (Myzus persicae; [4]) | percent effect (mortality or growth inhibition) at 200 ppm (Euschistus heros) | percent effect (mortality or growth inhibition) at 200 ppm (Diabrotica balteata)

Cc1cc(C2=NO[C@@](c3cc(Cl)c(F)c(Cl)c3)(C(F)(F)F)C2)ccc1C(=O)N[C@@H]1CON(S(=O)(=O)F)C1 [Compound A213, (4S)-4-[[4-[(5S)-5-(3,5-dichloro-4-fluorophenyl)-5-(trifluoromethyl)-4H-1,2-oxazol-3-yl]-2-methylbenzoyl]amino]-1,2-oxazolidine-2-sulfonyl fluoride]
≥ 80%: mortality at 200 ppm (Spodoptera littoralis) | mortality at 200 ppm (Tetranychus urticae) | percent control (mortality or growth inhibition) at 200 ppm (Plutella xylostella) | mortality at 200 ppm (Thrips tabaci) | mortality at 200 ppm (Myzus persicae) | percent control (mortality or growth inhibition) at 200 ppm (Euschistus heros) | percent control (mortality or growth inhibition) at 200 ppm (Diabrotica balteata)

Cc1cc(C2=NO[C@@](c3cc(F)cc(C(F)(F)F)c3)(C(F)(F)F)C2)ccc1C(=O)N[C@@H]1CON(S(C)(=O)=O)C1 [Compound A172]
≥ 80%: mortality at 200 ppm (Spodoptera littoralis; [1]) | mortality at 200 ppm (Tetranychus urticae; [2]) | percent effect (mortality or growth inhibition) at 200 ppm (Plutella xylostella) | mortality at 200 ppm (Thrips tabaci; [3]) | mortality at 200 ppm (Myzus persicae; [4]) | percent effect (mortality or growth inhibition) at 200 ppm (Euschistus heros) | percent effect (mortality or growth inhibition) at 200 ppm (Diabrotica balteata)

Cc1cc(C2=NO[C@@](c3cc(Cl)c(F)c(Cl)c3)(C(F)(F)F)C2)ccc1C(=O)N[C@H]1CON(S(=O)(=O)CBr)C1 [Compound A189, N-[(4R)-2-(bromomethylsulfonyl)-1,2-oxazolidin-4-yl]-4-[(5S)-5-(3,5-dichloro-4-fluorophenyl)-5-(trifluoromethyl)-4H-1,2-oxazol-3-yl]-2-methylbenzamide]
≥ 80%: mortality at 200 ppm (Spodoptera littoralis; [1]) | mortality at 200 ppm (Tetranychus urticae; [2]) | percent effect (mortality or growth inhibition) at 200 ppm (Plutella xylostella) | mortality at 200 ppm (Thrips tabaci; [3]) | mortality at 200 ppm (Myzus persicae; [4]) | percent effect (mortality or growth inhibition) at 200 ppm (Euschistus heros) | percent effect (mortality or growth inhibition) at 200 ppm (Diabrotica balteata)

Cc1cc(C2=NO[C@](c3cc(Cl)c(F)c(Cl)c3)(C(F)(F)F)C2)ccc1C(=O)N[C@@H]1CON(S(=O)(=O)C(F)(F)F)C1 [Compound A223, 4-[(5R)-5-(3,5-dichloro-4-fluorophenyl)-5-(trifluoromethyl)-4H-1,2-oxazol-3-yl]-2-methyl-N-[(4S)-2-(trifluoromethylsulfonyl)-1,2-oxazolidin-4-yl]benzamide]
≥ 80%: mortality at 200 ppm (Spodoptera littoralis; [1]) | mortality at 200 ppm (Tetranychus urticae; [2]) | percent effect (mortality or growth inhibition) at 200 ppm (Plutella xylostella) | mortality at 200 ppm (Thrips tabaci; [3]) | mortality at 200 ppm (Myzus persicae; [4]) | percent effect (mortality or growth inhibition) at 200 ppm (Euschistus heros) | percent effect (mortality or growth inhibition) at 200 ppm (Diabrotica balteata)

COCN(C)S(=O)(=O)N1CC(NC(=O)c2ccc(C3=NO[C@@](c4cc(Cl)c(Cl)c(Cl)c4)(C(F)(F)F)C3)cc2C)CO1 (some centres unmarked) [Compound A96]
≥ 80%: mortality at 200 ppm (Spodoptera littoralis; [1]) | mortality at 200 ppm (Tetranychus urticae; [2]) | percent effect (mortality or growth inhibition) at 200 ppm (Plutella xylostella) | mortality at 200 ppm (Thrips tabaci; [3]) | mortality at 200 ppm (Myzus persicae; [4]) | percent effect (mortality or growth inhibition) at 200 ppm (Euschistus heros) | percent effect (mortality or growth inhibition) at 200 ppm (Diabrotica balteata)

CCN(C(=O)OC(C)(C)C)S(=O)(=O)N1CC(NC(=O)c2ccc(C3=NO[C@@](c4cc(Cl)c(F)c(Cl)c4)(C(F)(F)F)C3)cc2C)CO1 (stereo partly drawn) [Compound A93, tert-butyl N-[4-[[4-[(5S)-5-(3,5-dichloro-4-fluoro-phenyl)-5-(trifluoromethyl)-4H-isoxazol-3-yl]-2-methyl-benzoyl]amino]isoxazolidin-2-yl]sulfonyl-N-ethyl-carbamate]
≥ 80%: mortality at 200 ppm (Spodoptera littoralis; [1]) | mortality at 200 ppm (Tetranychus urticae; [2]) | percent effect (mortality or growth inhibition) at 200 ppm (Plutella xylostella) | mortality at 200 ppm (Thrips tabaci; [3]) | mortality at 200 ppm (Myzus persicae; [4]) | percent effect (mortality or growth inhibition) at 200 ppm (Euschistus heros) | percent effect (mortality or growth inhibition) at 200 ppm (Diabrotica balteata)

C#CCN(C(=O)OC(C)(C)C)S(=O)(=O)N1C[C@@H](NC(=O)c2ccc(C3=NO[C@@](c4cc(Cl)cc(Cl)c4)(C(F)(F)F)C3)cc2Cl)CO1 [Compound A152]
≥ 80%: mortality at 200 ppm (Spodoptera littoralis; [1]) | mortality at 200 ppm (Tetranychus urticae; [2]) | percent effect (mortality or growth inhibition) at 200 ppm (Plutella xylostella) | mortality at 200 ppm (Thrips tabaci; [3]) | mortality at 200 ppm (Myzus persicae; [4]) | percent effect (mortality or growth inhibition) at 200 ppm (Euschistus heros) | percent effect (mortality or growth inhibition) at 200 ppm (Diabrotica balteata)

CN(C1CC1)S(=O)(=O)N1C[C@@H](NC(=O)c2ccc(C3=NO[C@@](c4cc(Cl)cc(Cl)c4)(C(F)(F)F)C3)cc2Cl)CO1 [Compound A153]
≥ 80%: mortality at 200 ppm (Spodoptera littoralis; [1]) | mortality at 200 ppm (Tetranychus urticae; [2]) | percent effect (mortality or growth inhibition) at 200 ppm (Plutella xylostella) | mortality at 200 ppm (Thrips tabaci; [3]) | mortality at 200 ppm (Myzus persicae; [4]) | percent effect (mortality or growth inhibition) at 200 ppm (Euschistus heros) | percent effect (mortality or growth inhibition) at 200 ppm (Diabrotica balteata)

CC(C)(C)OC(=O)NS(=O)(=O)N1C[C@@H](NC(=O)c2ccc(C3=NO[C@@](c4cc(Cl)cc(Cl)c4)(C(F)(F)F)C3)cc2Cl)CO1 [Compound A151, tert-butyl N-[(4R)-4-[[2-chloro-4-[(5S)-5-(3,5-dichlorophenyl)-5-(trifluoromethyl)-4H-isoxazol-3-yl]benzoyl]amino]isoxazolidin-2-yl]sulfonylcarbamate]
≥ 80%: mortality at 200 ppm (Spodoptera littoralis; [1]) | mortality at 200 ppm (Tetranychus urticae; [2]) | percent effect (mortality or growth inhibition) at 200 ppm (Plutella xylostella) | mortality at 200 ppm (Thrips tabaci; [3]) | mortality at 200 ppm (Myzus persicae; [4]) | percent effect (mortality or growth inhibition) at 200 ppm (Euschistus heros) | percent effect (mortality or growth inhibition) at 200 ppm (Diabrotica balteata)

CCS(=O)(=O)N1CC(NC(=O)c2ccc(C3=NO[C@@](c4cc(Cl)c(F)c(Cl)c4)(C(F)(F)F)C3)cc2C)CO1 (some centres unmarked) [Compound A4]
≥ 80%: mortality at 200 ppm (Spodoptera littoralis; [1]) | mortality at 200 ppm (Tetranychus urticae; [2]) | percent effect (mortality or growth inhibition) at 200 ppm (Plutella xylostella) | mortality at 200 ppm (Thrips tabaci; [3]) | mortality at 200 ppm (Myzus persicae; [4]) | percent effect (mortality or growth inhibition) at 200 ppm (Euschistus heros) | percent effect (mortality or growth inhibition) at 200 ppm (Diabrotica balteata)

Cc1cc(C2=NO[C@](c3cc(Cl)cc(C(F)F)c3)(C(F)(F)F)C2)ccc1C(=O)N[C@H]1CON(S(C)(=O)=O)C1 [Compound A185]
≥ 80%: mortality at 200 ppm (Spodoptera littoralis; [1]) | mortality at 200 ppm (Tetranychus urticae; [2]) | percent effect (mortality or growth inhibition) at 200 ppm (Plutella xylostella) | mortality at 200 ppm (Thrips tabaci; [3]) | mortality at 200 ppm (Myzus persicae; [4]) | percent effect (mortality or growth inhibition) at 200 ppm (Euschistus heros) | percent effect (mortality or growth inhibition) at 200 ppm (Diabrotica balteata)

Cc1cc(C2=NO[C@@](c3cc(Cl)c(F)c(Cl)c3)(C(F)(F)F)C2)ccc1C(=O)NC1CON(S(=O)(=O)CCCl)C1 (stereo partly drawn) [Compound A7, N-[2-(2-chloroethylsulfonyl)isoxazolidin-4-yl]-4-[(5S)-5-(3,5-dichloro-4-fluoro-phenyl)-5-(trifluoromethyl)-4H-isoxazol-3-yl]-2-methyl-benzamide]
≥ 80%: mortality at 200 ppm (Spodoptera littoralis) | mortality at 200 ppm (Tetranychus urticae) | percent control (mortality or growth inhibition) at 200 ppm (Plutella xylostella) | mortality at 200 ppm (Thrips tabaci) | mortality at 200 ppm (Myzus persicae) | percent control (mortality or growth inhibition) at 200 ppm (Euschistus heros) | percent control (mortality or growth inhibition) at 200 ppm (Diabrotica balteata)
